Patent publication US8158186B2, “2-methylthioethyl-substituted heterocycles as feed additives” (Evonik Degussa GmbH, priority 2007, dated 2012)
Like-named read-outs stand apart in the source and are kept apart here.

Columns and labels:
[1] = cited from earlier work
[2] = European Commission report, 25 Apr. 2003; cited from earlier work
[3] = published in WO 00/28835, ruminants

melting point	Structure (SMILES)	biological value [1, 3]	other results
84 °C	CSCCC1OC(C)(C)NC1=O (centres unmarked) [compound 10, 2,2-dimethyl-5-(2-(methylthio)ethyl)oxazolidin-4-one]	–	–
130 °C	CSCCC1OC(c2ccccc2)NC1=O (centres unmarked) [compound 12, 5-(2-(methylthio)ethyl)-2-phenyloxazolidin-4-one]	–	–
109 °C	CSCCC1OC2(CCCCC2)NC1=O (centres unmarked) [compound 14, 2-(2-(methylthio)ethyl)-1-oxa-4-azaspiro[4.5]decan-3-one]	–	–

Further lines, the compound ahead of its results:

Structure (SMILES)	melting point	biological value [1, 3]	other results
CSCCC(O)C(=O)OC(C)C (centres unmarked) [HMBi]	–	at least 50%	biological value ([1]; published in EP 1358805, HMBi applied to a porous carrier, compared with the at least 50% of WO 00/28835): comparable; HMBi absorbed through the rumen wall [2]: approximately 50%
CCC1(C)NC(=O)C(CCSC)O1 (centres unmarked) [compound 13, 2-ethyl-2-methyl-5-(2-(methylthio)ethyl)oxazolidin-4-one]	62 °C	–	–
CSCCC(N)C(=O)OC(C)(C)C (racemic) [D,L-tert-butylmethionine, reference compound]	–	80%	–
